The results in this text go back to patent US7939341B2, “Membrane arrays and methods of manufacture” (Corning Incorporated, priority 2004, dated 2011).

In this assay the target is motilin receptor (Motilin) (Homo sapiens, UniProt O43193). In words: GPCR array functional assay (Eu-GTP binding) on GAPS coated porous slide, Motilin receptor. The assay is classed as biochemical. To be noted: agonist at 1 μM, 10 nM Eu-GTP, 3 μM GDP, 1 hour incubation, time-resolved fluorescence.
Sequence of motilin receptor (Motilin) (O43193 whole entry, species assumed): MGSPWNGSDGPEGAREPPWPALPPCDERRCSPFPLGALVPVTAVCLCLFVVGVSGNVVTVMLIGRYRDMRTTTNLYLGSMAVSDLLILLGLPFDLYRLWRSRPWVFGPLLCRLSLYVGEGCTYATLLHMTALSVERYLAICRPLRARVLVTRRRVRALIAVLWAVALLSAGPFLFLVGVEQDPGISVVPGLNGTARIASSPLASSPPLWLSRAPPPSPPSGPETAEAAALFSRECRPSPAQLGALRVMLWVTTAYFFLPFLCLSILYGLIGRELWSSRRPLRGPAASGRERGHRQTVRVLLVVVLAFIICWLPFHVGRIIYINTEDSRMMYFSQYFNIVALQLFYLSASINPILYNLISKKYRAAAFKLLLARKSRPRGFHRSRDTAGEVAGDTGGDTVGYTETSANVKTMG

Protocol: 2) Assays performing—the printed GPCR arrays are then incubated with assay buffers containing GTP analogue probes in the presence or absence of receptor agonist for certain time (e.g., 45 minutes), and at the end of incubation period the assay solutions are removed, the slides are rinsed with GTP wash buffer and dried with nitrogen;
3) Imaging—when Eu-GTP is used as a probe, the slides are then directly scanned using a time-resolved fluorescence imaging system; and, if biotin-GTPγS is used as a probe, an extra incubation step is often performed before imaging. For example, the array is then further incubated with Gold particles labeled streptavadin in order to detect bounded biotin-GTPγS, resonance light scattering imaging system is then used.
The EuGTP assay buffer contained 10 nM Eu-GTP, 50 mM HEPES buffer, pH 7.4, 3 μM GDP, 10 mM MgCl2, 100 mM NaCl, and 0.1% protein blocker. At the end of the incubation, the assay buffers were removed. Afterwards, slides were washed, dried and imaged with in-house developed time-resolved fluorescence imaging system.

Turning to `CC[C@H](C)[C@H](NC(=O)[C@@H]1CCCN1C(=O)[C@@H](NC(=O)[C@@H](N)Cc1ccccc1)C(C)C)C(=O)N[C@@H](Cc1ccccc1)C(=O)N[C@H](C(=O)N[C@@H](Cc1ccc(O)cc1)C(=O)NCC(=O)N[C@@H](CCC(=O)O)C(=O)N[C@@H](CC(C)C)C(=O)N[C@@H](CCC(N)=O)C(=O)N[C@@H](CCCNC(=N)N)C(=O)N[C@@H](CCSC)C(=O)N[C@@H](CCC(N)=O)C(=O)N[C@@H](CCC(=O)O)C(=O)N[C@@H](CCCCN)C(=O)N[C@@H](CCC(=O)O)C(=O)N[C@@H](CCCNC(=N)N)C(=O)N[C@@H](CC(N)=O)C(=O)N[C@@H](CCCCN)C(=O)NCC(=O)N[C@@H](CCC(N)=O)C(=O)O)[C@@H](C)O` [motilin], the “binding of EuGTP to the GPCR microspots (receptor activation by agonist)” value is “increase the binding of EuGTP”.
